Data from ChEMBL document CHEMBL3886544, “Substituted dialkyl(oxido)-lambda4-sulfanylidene nicotinamide derivatives as kinase inhibitors” (2016).

Experiments:
[1] = target: T1, Vascular endothelial growth factor receptor 2 (Homo sapiens, UniProt P35968); assay: (§1) VEGFR2 Cellular Assay: Automated FLIPR (Fluorometric Imaging Plate Reader) technology was used to screen for inhibitors of VEGF induced increases in intracellular calcium levels in fluorescent dye loaded endothelial cells. HUVEC (human umbilical vein endothelial cells) (Clonetics) were seeded in 384-well fibronectin coated black-walled plates overnight @ 37° C./5% CO2. Cells were loaded with calcium indicator Fluo-4 for 45 minutes at 37° C. Cells were washed 2 times (Elx405, Biotek Instruments) to remove extracellular dye. For screening, cells were pre-incubated with test agents for 30 minutes, at a single concentration (10 uM) or at concentrations ranging from 0.0001 to 10.0 uM followed by VEGF165 stimulation (10 ng/mL). Changes in fluorescence at 516 nm were measured simultaneously in all 384 wells using a cooled CCD camera. Data were generated by determining max-min fluorescence levels for unstimulated, stimulated, and drug treated samples.; assay type: cell-based, Endothelial cell
[2] = target: T1, Vascular endothelial growth factor receptor 2; assay: VEGFR2 Kinase Assay: Biochemical KDR kinase assays were performed in 96 well microtiter plates that were coated overnight with 75 ug/well of poly-Glu-Tyr (4:1) in 10 mM Phosphate Buffered Saline (PBS), pH 7.4. The coated plates were washed with 2 mls per well PBS+0.05% Tween-20 (PBS-T), blocked by incubation with PBS containing 1% BSA, then washed with 2 mls per well PBS-T prior to starting the reaction. Reactions were carried out in 100 uL reaction volumes containing 2.7 uM ATP in kinase buffer (50 mM Hepes buffer pH 7.4, 20 mM MgCl2, 0.1 mM MnCl2 and 0.2 mM Na3VO4). Test compounds were reconstituted in 100% DMSO and added to the reaction to give a final DMSO concentration of 5%. Reactions were initiated by the addition 20 ul per well of kinase buffer containing 200-300 ng purified cytoplasmic domain KDR protein (BPS Bioscience, San Diego, Calif.). Following a 15 minute incubation at 30° C., the reactions were washed 2 mls per well PBS-T. 100 ul of a monoclonal anti-phosphotyrosine antibody-peroxidase conjugate diluted 1:10,000 in PBS-T was added to the wells for 30 minutes. Following a 2 mls per well wash with PBS-Tween-20, 100 ul of 0-Phenylenediamine Dihydrochloride in phosphate-citrate buffer, containing urea hydrogen peroxide, was added to the wells for 7-10 minutes as a colorimetric substrate for the peroxidase. The reaction was terminated by the addition of 100 ul of 2.5N H2SO4 to each well and read using a microplate ELISA reader set at 492 nm.
[3] = target: T2, Platelet-derived growth factor receptor beta (Homo sapiens, UniProt P09619); assay: as §1, with “PDGFRbeta : Automated” for “VEGFR2 Cellular Assay: Automated”, “of PDGF-induced” for “of VEGF induced”, “cells. NHDF-Ad (Normal Human Dermal Fibroblasts, Adult; Lonza)” for “cells. HUVEC (human umbilical vein endothelial cells) (Clonetics)”, “by PDGF-BB” for “by VEGF165”, “stimulation (30” for “stimulation (10”; assay type: cell-based, Endothelial cell
[4] = target: T2, Platelet-derived growth factor receptor beta; assay: PDGFRbeta Kinase Assay: Biochemical PDGFRbeta kinase assays were performed in 96 well microtiter plates that were coated overnight with 75 ug of poly-Glu-Tyr (4:1) in 10 mM Phosphate Buffered Saline (PBS), pH 7.4. The coated plates were washed with 2 mls per well PBS+0.05% Tween-20 (PBS-T), blocked by incubation with PBS containing 1% BSA, then washed with 2 mls per wellPBS-T prior to starting the reaction. Reactions were carried out in 100 uL reaction volumes containing 36 uM ATP in kinase buffer (50 mM Hepes buffer pH 7.4, 20 mM MgCl2, 0.1 mM MnCl2 and 0.2 mM Na3VO4). Test compounds were reconstituted in 100% DMSO and added to the reaction to give a final DMSO concentration of 5%. Reactions were initiated by the addition 20 ul per well of kinase buffer containing 200-300 ng purified cytoplasmic domain PDGFR-b protein (Millipore). Following a 60 minute incubation at 30° C., the reactions were washed 2 mls per well PBS-T. 100 ul of a monoclonal anti-phosphotyrosine antibody-peroxidase conjugate diluted 1:10,000 in PBS-T was added to the wells for 30 minutes. Following a 2 mls per well wash with PBS-Tween-20, 100 ul of 0-Phenylenediamine Dihydrochloride in phosphate-citrate buffer, containing urea hydrogen peroxide, was added to the wells for 7-10 minutes as a colorimetric substrate for the peroxidase. […]

T1 sequence (P35968 whole entry): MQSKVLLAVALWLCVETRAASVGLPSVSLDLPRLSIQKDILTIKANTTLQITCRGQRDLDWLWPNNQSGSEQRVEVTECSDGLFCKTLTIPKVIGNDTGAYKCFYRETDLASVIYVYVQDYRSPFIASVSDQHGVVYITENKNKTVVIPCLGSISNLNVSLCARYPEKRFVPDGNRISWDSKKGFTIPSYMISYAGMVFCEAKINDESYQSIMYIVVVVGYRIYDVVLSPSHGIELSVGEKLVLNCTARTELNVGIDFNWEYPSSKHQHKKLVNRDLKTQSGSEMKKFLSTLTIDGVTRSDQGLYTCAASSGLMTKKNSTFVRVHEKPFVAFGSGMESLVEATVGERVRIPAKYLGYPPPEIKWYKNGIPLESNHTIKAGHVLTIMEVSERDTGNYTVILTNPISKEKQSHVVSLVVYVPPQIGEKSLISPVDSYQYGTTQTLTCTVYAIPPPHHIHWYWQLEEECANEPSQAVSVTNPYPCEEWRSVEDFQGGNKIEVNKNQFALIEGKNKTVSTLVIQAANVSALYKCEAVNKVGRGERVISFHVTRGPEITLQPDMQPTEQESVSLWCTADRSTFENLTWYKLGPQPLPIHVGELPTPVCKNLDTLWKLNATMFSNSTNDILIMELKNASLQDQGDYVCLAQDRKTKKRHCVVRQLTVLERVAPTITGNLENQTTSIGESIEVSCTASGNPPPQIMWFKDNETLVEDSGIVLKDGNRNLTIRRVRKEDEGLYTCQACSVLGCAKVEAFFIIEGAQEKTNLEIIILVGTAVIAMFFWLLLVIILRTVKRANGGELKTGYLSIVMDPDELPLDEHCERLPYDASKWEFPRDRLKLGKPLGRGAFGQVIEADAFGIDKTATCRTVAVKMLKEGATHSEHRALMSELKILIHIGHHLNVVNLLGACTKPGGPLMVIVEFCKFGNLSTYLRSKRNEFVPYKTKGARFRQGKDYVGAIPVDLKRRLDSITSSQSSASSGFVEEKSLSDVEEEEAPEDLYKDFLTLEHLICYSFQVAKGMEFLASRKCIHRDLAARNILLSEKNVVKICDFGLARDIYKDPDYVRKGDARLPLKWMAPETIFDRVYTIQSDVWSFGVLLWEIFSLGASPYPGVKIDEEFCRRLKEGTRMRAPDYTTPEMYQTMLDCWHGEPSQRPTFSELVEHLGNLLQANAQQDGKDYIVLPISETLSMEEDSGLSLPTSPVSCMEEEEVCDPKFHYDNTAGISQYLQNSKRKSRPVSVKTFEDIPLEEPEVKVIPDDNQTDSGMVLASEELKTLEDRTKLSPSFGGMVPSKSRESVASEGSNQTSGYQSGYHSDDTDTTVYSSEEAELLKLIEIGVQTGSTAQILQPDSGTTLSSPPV
T2 sequence (P09619 whole entry): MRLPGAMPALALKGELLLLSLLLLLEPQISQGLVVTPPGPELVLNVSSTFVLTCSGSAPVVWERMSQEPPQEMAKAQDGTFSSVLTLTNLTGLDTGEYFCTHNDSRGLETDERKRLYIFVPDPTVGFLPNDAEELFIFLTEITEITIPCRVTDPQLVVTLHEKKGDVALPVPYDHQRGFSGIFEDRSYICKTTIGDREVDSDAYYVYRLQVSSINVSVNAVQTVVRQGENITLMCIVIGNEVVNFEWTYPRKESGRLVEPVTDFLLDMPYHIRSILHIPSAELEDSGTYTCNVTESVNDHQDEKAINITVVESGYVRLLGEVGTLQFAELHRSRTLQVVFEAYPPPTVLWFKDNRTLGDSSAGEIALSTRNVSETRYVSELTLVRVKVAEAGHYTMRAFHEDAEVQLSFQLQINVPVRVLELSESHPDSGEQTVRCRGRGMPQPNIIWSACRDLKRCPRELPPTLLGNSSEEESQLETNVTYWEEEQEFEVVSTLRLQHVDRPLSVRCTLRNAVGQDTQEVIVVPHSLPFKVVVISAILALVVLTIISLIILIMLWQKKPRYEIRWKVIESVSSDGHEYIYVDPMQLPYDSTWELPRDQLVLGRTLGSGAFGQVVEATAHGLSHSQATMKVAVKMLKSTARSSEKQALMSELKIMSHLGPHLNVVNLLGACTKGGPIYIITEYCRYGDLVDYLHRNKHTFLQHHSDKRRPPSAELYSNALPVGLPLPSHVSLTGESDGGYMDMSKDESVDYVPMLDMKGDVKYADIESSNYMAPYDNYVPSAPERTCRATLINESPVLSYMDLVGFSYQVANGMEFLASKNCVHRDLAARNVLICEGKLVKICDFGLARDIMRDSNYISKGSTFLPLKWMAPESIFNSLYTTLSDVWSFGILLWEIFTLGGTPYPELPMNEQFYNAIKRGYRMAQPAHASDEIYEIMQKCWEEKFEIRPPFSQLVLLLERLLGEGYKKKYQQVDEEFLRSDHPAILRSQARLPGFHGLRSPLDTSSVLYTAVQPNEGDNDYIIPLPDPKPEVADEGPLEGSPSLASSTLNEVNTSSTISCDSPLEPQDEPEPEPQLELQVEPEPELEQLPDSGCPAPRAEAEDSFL

Row | Structure (SMILES) | IC50 [1] | IC50 [2] | IC50 [3] | IC50 [4]
1 | Cc1ccoc1C(=O)Nc1cccc(C#Cc2cncc(C(=O)N=S(C)(=O)CCCO)c2)c1 (stereo not drawn) | 1 nM | 14 nM | 31 nM | 
2 | Cc1ccoc1C(=O)Nc1cccc(C#Cc2cncc(C(=O)N=[S@@](C)(=O)CCCO)c2)c1 |  | 3 nM |  | 18 nM
3 | Cc1ccoc1C(=O)Nc1cccc(C#Cc2cc(C(=O)N=S(C)(=O)CC(=O)N3CC[C@H](O)C3)cnc2N)c1 (stereo partly drawn) |  | 3 nM |  | 
4 | Cc1ccoc1C(=O)Nc1cccc(C#Cc2cncc(C(=O)N=S(C)(=O)CCCN3CCN(CCOCCO)CC3)c2)c1 (stereo not drawn) | 10 nM | 9 nM |  | 
